The values that follow come from patent US9078871B2, “Estrogen receptor modulators and uses thereof” (SERAGON PHARMACEUTICALS, INC., priority 2010, dated 2015).

In one test the test system is MCF-7 cells. Briefly: Breast Cancer Cell Viability Assay (MCF7 Viability Assay). Format: cell-based. To be noted: 5 days' compound exposure, CellTiter-Glo; for IC50: Homo sapiens, MCF7, 120 h. Summed up: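 MCF-7 cells, 320 per well in RPMI with 10% FBS and 20 mM HEPES, adhered overnight, then exposed 5 days to an eleven-point semilog dilution (final 0.3–0.000003 μM). CellTiter-Glo luminescence; % viability relative to untreated cells after subtracting cell-free background.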
On the technique in general: Cellular ATP, detected with luciferase, serves as a proxy for viable cell number.

Test [1] has as its target T1, ER-α (Homo sapiens, UniProt P03372).
T1 construct: endogenous in cells; host or cells: MCF-7
T1 sequence (P03372 1-595): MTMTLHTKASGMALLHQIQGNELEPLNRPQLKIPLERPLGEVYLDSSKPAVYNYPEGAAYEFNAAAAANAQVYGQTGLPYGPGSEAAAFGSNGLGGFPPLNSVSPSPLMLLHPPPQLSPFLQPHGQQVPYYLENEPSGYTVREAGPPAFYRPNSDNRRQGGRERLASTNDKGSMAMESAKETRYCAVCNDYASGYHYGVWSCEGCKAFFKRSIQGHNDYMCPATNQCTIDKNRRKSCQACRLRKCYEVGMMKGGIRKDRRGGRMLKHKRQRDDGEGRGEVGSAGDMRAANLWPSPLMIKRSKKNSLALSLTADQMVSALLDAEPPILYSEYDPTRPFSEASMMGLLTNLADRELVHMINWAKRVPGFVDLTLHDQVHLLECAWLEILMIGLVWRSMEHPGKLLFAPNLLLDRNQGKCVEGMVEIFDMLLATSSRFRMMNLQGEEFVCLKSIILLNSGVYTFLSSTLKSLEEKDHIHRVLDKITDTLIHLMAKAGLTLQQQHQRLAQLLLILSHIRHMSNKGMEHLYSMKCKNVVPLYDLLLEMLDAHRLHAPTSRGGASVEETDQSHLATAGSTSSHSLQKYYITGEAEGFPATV
Briefly: ER-α In Cell Western Assay (ER1D5). To be noted: MCF-7 cells, ER1D5 antibody, 4 or 24 hr post compound addition, read-out: ER In-Cell Western Assay (ER1D5); for Emax: MCF7, Max Response; for DC50: IC50. Format: cell-based. In short, it runs like this: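 MCF-7 cells in RPMI with 10% charcoal-stripped FBS treated with 11-point semilog series (0.3–0.000003 μM final) for 4 or 24 h. Fixed cells stained with ER1D5 plus IRDye 800CW secondary and DRAQ5; ER level = 800/700 nm intensity ratio as % of untreated cells.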

Test [2] has as its target T1, ER-α. Briefly: ER-α in Cell Western Assay (SP1). Format: cell-based. To be noted: MCF-7 cells, SP1 rabbit monoclonal Ab, 4 or 24 hr post compound addition, read-out: ER In-Cell Western Assay (SP1); for Emax: MCF7, Max Response; for DC50: IC50. Summed up: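 MCF-7 cells in charcoal-stripped FBS medium treated with 11-point semilog dilutions (0.3–0.000003 μM final) for 4 or 24 hr, then fixed and immunostained with SP1 anti-ER antibody. ER signal (800 nm) normalized to DRAQ5 DNA signal (700 nm) and expressed as % of untreated cells.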

For a further test, the system named is MCF-7 tumors. Description: Xenograft Assay (MCF-7 Derivative), tamoxifen treatment of MCF-7 tumors. Format: in vivo. To be noted: female nu/nu mice with 17-β estradiol pellets bearing MCF-7 tumors, oral gavage. As to the method: Female nu/nu mice (with supplemental 17-P3 Estradiol pellets; 0.72 mg; 60 day slow release) bearing MCF-7 tumors (mean tumor volume 200 mm^3) were treated with Tamoxifen (citrate) by oral gavage. Tumor volume (length×width^2/2) and body weight were monitored twice weekly. […] At 120 days of treatment, tamoxifen dose was increased. Rapidly growing tumors were deemed tamoxifen resistant and selected for in vivo passage into new host animals. Tumor Fragments (˜100 mm^3/animal) from the tamoxifen resistant tumors were subcutaneously implanted into the right flank of female nu/nu mice (with 17-P3 Estradiol pellets (0.72 mg; 60 day slow release)). Passaged tumors were maintained under constant Tamoxifen selection and Tumor volume (length×width^2/2) monitored weekly. When tumor volume reached ˜150-250 mm^3, animals were randomized into treatment groups (mean tumor volume 200 mm^3) and tamoxifen treatment was terminated (except for a tamoxifen control arm). Animals were treated with Vehicle or test compound daily for 4 weeks. Tumor volume and body weight were monitored twice weekly for the duration of the study. At the conclusion of the treatment period; plasma and tumor samples were taken for pharmacokinetic and pharmacodynamic analyses, respectively.

For orientation: IC50 means the concentration needed to halve the response being measured. A high value points to a need for much substance. Regarding `CC1=C(c2ccc(C)c(O)c2)C(c2ccc(OC[C@H](C)N3CC[C@@H](C)C3)cc2)Oc2ccc(O)cc21` (stereo partly drawn) [Example 39, 3-(3-Hydroxy-4-methylphenyl)-4-methyl-2-(4-((S)-2-((R)-3-methylpyrrolidin-1-yl)propoxy)phenyl)-2H-chromen-6-ol], in the test on MCF-7 cells, the “MCF7 Viability Assay Max Response” value is listed as “++ (++ = a single % value ≧50%)” and the IC50 is above 1 nM. Moreover, on ER-α [1], the Emax was at least 65% and the DC50 was above 1 nM. Besides, on ER-α [2], the Emax was 60 to 85% and the DC50 is above 1 nM.
On to `CC1=C(c2cccc(O)c2)C(c2ccc(OCCN3CCC[C@@H](C)C3)cc2)Oc2ccc(O)cc21` (stereo partly drawn) [Example 53, 3-(3-Hydroxyphenyl)-4-methyl-2-(4-(2-((R)-3-methylpiperidin-1-yl)ethoxy)phenyl)-2H-chromen-6-ol], for which, in the test with MCF-7 cells, the “MCF7 Viability Assay Max Response” value is listed as “++ (++ = a single % value ≧50%)” and the IC50 was at most 1 nM. On ER-α [1], the Emax was 40 to 65% and the DC50 was at most 1 nM. At ER-α [2], the Emax lay within 60 to 85% and the DC50 is at most 1 nM.
For the compound `CC1=C(c2ccc(Br)cc2)C(c2ccc(OC[C@H](C)N3CC[C@@H](C)C3)cc2)Oc2ccc(O)cc21` (stereo partly drawn) [Example 54, 3-(4-Bromophenyl)-4-methyl-2-(4-((S)-2-((R)-3-methylpyrrolidin-1-yl)propoxy)phenyl)-2H-chromen-6-ol], in the test on MCF-7 cells, the “MCF7 Viability Assay Max Response” value is “++ (++ = a single % value ≧50%)” and the IC50 was above 1 nM. On ER-α [1], the Emax is at least 65% and the DC50 is above 1 nM. In addition, at ER-α [2], the Emax is 60 to 85% and the DC50 was above 1 nM.
For `CC1=C(c2ccc(F)cc2)C(c2ccc(OCCN3CCCC3)cc2)Oc2ccc(O)cc21` (centres unmarked) [Example 55, 3-(4-Fluorophenyl)-4-methyl-2-(4-(2-(pyrrolidin-1-yl)ethoxy)phenyl)-2H-chromen-6-ol], in the test with MCF-7 cells, the “MCF7 Viability Assay Max Response” value was “++ (++ = a single % value ≧50%)” and the IC50 was above 1 nM. Besides, at ER-α [1], the Emax was 40 to 65% and the DC50 is above 1 nM. On ER-α [2], the Emax lay in the range of 60 to 85% and the DC50 is at most 1 nM.
As to `CC1=C(c2ccccc2C)C(c2ccc(OC[C@H](C)N3CC[C@@H](C)C3)cc2)Oc2ccc(O)cc21` (stereo partly drawn) [Example 56, 4-Methyl-2-(4-((S)-2-((R)-3-methylpyrrolidin-1-yl)propoxy)phenyl)-3-(o-tolyl)-2H-chromen-6-ol], in the test on MCF-7 cells, the “MCF7 Viability Assay Max Response” value is listed as “++ (++ = a single % value ≧50%)” and the IC50 is at most 1 nM. Besides, on ER-α [1], the Emax was at least 65% and the DC50 was at most 1 nM. Moreover, at ER-α [2], the Emax was in the range of 60 to 85% and the DC50 was at most 1 nM.
As for `CC1=C(c2ccc(F)c(O)c2)C(c2ccc(OC[C@H](C)N3CC[C@@H](C)C3)cc2)Oc2ccc(O)cc21` (stereo partly drawn) [Example 57, 3-(4-Fluoro-3-hydroxyphenyl)-4-methyl-2-(4-((S)-2-((R)-3-methylpyrrolidin-1-yl)propoxy)phenyl)-2H-chromen-6-ol], in the test with MCF-7 cells, the “MCF7 Viability Assay Max Response” value is reported as “++ (++ = a single % value ≧50%)” and the IC50 was at most 1 nM. For the same compound, on ER-α [1], the Emax is at least 65% and the DC50 was at most 1 nM. For the same compound, at ER-α [2], the Emax was at least 85% and the DC50 is at most 1 nM.
As to `C#Cc1ccc(C2=C(C)c3cc(O)ccc3OC2c2ccc(OC[C@H](C)N3CC[C@@H](C)C3)cc2)cc1` (stereo partly drawn) [Example 58, 3-(4-Ethynylphenyl)-4-methyl-2-(4-((S)-2-((R)-3-methylpyrrolidin-1-yl)propoxy)phenyl)-2H-chromen-6-ol], in the test on MCF-7 cells, the “MCF7 Viability Assay Max Response” value is on record as “++ (++ = a single % value ≧50%)” and the IC50 is above 1 nM. Moreover, on ER-α [1], the Emax is at least 65% and the DC50 was above 1 nM. On ER-α [2], the Emax was 60 to 85% and the DC50 is at most 1 nM.
Turning to `CC1=C(c2ccc(S(C)(=O)=O)cc2)C(c2ccc(OC[C@H](C)N3CC[C@@H](C)C3)cc2)Oc2ccc(O)cc21` (stereo partly drawn) [Example 59, 4-Methyl-2-(4-((S)-2-((R)-3-methylpyrrolidin-1-yl)propoxy)phenyl)-3-(4-(methylsulfonyl)phenyl)-2H-chromen-6-ol], in the test with MCF-7 cells, the “MCF7 Viability Assay Max Response” value was “++ (++ = a single % value ≧50%)” and the IC50 is above 1 nM. Also, at ER-α [1], the Emax lay in the range of 40 to 65% and the DC50 was above 1 nM. Besides, on ER-α [2], the Emax was in the range of 60 to 85% and the DC50 is above 1 nM.
In the case of `CC/C(=C(\c1ccccc1)c1ccc(OCCN(C)C)cc1)c1ccccc1` [Tamoxifen, tamoxifen], in the test on MCF-7 tumors, the “anti-tumor response (tumor volume)” value is on record as “tumor volume remained static” and the “time at which evident tumor growth was first observed” value is on record as “approximately 100 days of treatment”.
